Earlier results on one molecule are cited in patent US11058116B1, “Composition for stimulating plant growth and resistance to stress factors” (AGRATEK PTE. LTD., priority 2018, dated 2021).

One data set has as its system seeds. Conditions: pre-treatment of seeds with a solution.
The test system of a further data set is mold. The conditions noted are these: pre-treatment of seeds with a solution.

As to `O=C([O-])CCC(=O)[O-].[Mg+2]` [succinate of magnesium, magnesium succinate (Mg2C4H4O4)], the “germination (increased to)” value in the data set on seeds is recorded as 99%. Moreover, the “reduces the seeds infection with mold” value in the data set on mold was 86%.
